Results taken from paper PMC6333442, “Conserved allosteric pathways for activation of TRPV3 revealed through engineering vanilloid-sensitivity” (eLife, 2019).
Residue numbers refer to the chain shown, from its start.

Key:
WT mouse TRPV3 = target: T1, WT mouse TRPV3 (Mus musculus, UniProt Q8K424); assay type: cell-based
T1 construct: expressed in transfected cells; host or cells: Xenopus laevis oocytes (cRNA injection, pGEM-HE vector)
T1 sequence (Q8K424 1-791): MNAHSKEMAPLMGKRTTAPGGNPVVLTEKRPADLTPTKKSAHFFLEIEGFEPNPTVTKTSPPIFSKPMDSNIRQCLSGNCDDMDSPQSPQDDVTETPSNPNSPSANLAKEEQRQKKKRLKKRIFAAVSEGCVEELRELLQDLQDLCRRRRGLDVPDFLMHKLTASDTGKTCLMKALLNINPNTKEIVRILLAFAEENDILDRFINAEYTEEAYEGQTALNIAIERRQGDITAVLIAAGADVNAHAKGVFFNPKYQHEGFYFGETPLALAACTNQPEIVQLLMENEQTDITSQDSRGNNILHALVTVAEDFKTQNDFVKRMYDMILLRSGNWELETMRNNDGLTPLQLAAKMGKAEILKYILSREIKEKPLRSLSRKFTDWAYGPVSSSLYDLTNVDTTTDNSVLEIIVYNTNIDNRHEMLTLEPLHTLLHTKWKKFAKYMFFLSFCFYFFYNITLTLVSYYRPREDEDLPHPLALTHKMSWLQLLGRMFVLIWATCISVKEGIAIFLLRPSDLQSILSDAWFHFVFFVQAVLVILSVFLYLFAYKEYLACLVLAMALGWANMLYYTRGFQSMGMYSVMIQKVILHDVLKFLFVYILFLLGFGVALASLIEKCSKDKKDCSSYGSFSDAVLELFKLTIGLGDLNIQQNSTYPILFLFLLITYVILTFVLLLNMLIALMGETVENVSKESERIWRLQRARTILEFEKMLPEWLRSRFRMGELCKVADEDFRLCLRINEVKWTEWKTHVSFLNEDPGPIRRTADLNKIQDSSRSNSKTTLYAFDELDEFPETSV
Method: (§1) All channel constructs were expressed in Xenopus laevis oocytes and studied using the two-electrode voltage clamp technique (TEVC) following 1–4 days of incubation after cRNA injection. The animal care and experimental procedures were performed in accordance with the Guide for the Care and Use of Laboratory Animals and were approved by the Animal Care and Use Committee of the National Institute of Neurological Disorders and Stroke (Animal protocol number 1253–17). Oocytes were removed surgically and incubated with agitation for 1 hr in a solution containing (in mM) 82.5 NaCl, 2.5 KCl, 1 MgCl2, 5 HEPES, pH 7.6 (with NaOH), and collagenase (2 mg/ml; Worthington Biochemical, Lakewood, NJ). Defolliculated oocytes were injected with cRNA for each of the constructs and incubated at 17°C in a solution containing (in mM) 96 NaCl, 2 KCl, 1 MgCl2, 1.8 CaCl2, 5 HEPES, pH 7.6 (with NaOH), and gentamicin (50 μg/ml, GIBCO-BRL, Gaithersburg, MD). Oocyte membrane voltage was controlled using an OC-725C oocyte clamp (Warner Instruments, Hamden, CT). Data were filtered at 1–3 kHz and digitized at 20 kHz using pClamp software (Molecular Devices, Sunnyvale, CA) and a Digidata 1440A digitizer (Axon Instruments). Microelectrode resistances were 0.1–1 MΩ when filled with 3 M KCl. For recording TRP channel currents, the external recording solution contained (in mM) 100 KCl, 10 HEPES, pH 7.6 (with KOH). Experiments were performed at room temperature (~22°C), except as indicated otherwise. […] Current time courses were obtained by stepping membrane voltage every 2 s from a holding potential of 0 mV to either −60 or +60 mV for 100 ms, and plotting the mean steady-state current at the end of each voltage step as a function of total recording time. I-V relations were obtained similarly, but voltage was stepped every 2 s to a different value, in 10 mV increments and starting at −60 mV.
(§2) For temperature-activation experiments, calcium-activated chloride currents were minimized by using calcium-free solution containing 30 µM Caccinh-A01 and recording at negative membrane voltages. Heat stimuli were achieved by passing the external recording solution through glass capillary spirals immersed in a water bath maintained at about 70°C, and recordings were performed during constant perfusion with temperature measured using a thermistor (TA-29, Warner Instruments) located close to the cell. The thermistor was connected to the digitizer via a temperature controller (TC-324B, Warner Instruments) ([Zhang et al., 2018]). Oocytes injected with the various constructs were only studied if un-injected oocytes from the same batch contained a low density of endogenous temperature-sensitive currents at negative membrane voltages. For delivering cold stimuli, the external solution was passed through glass capillary spirals that were immersed in an ice bath. The mean I vs T relations were calculated by automatically binning each of the recordings in temperature intervals of 2°C, and averaging a single data point within each interval per cell. All data analysis was carried out using Igor Pro 6.3 (Wavemetrics, Portland, OR). Q10 values were obtained from Q10 = 10^10 x m, where m is the slope of linear fits to normalized log(current) vs temperature relations (not shown) over temperature intervals ~ 20–34°C or 38 – 45°C ([Zhang et al., 2018]).

mouse TRPV3-6M = target: T2, mouse TRPV3-6M (Mus musculus, UniProt Q8K424, A560T/F522S/H523E/L557M/Q580E/W521Y); assay type: cell-based; details: for channel activation (current response): RTx 100 nM, 2-APB 3 mM, room temperature, ±60 mV
T2 construct: expressed in transfected cells; host or cells: Xenopus laevis oocytes
T2 sequence (Q8K424 1-791 W521Y/F522S/H523E/L557M/A560T/Q580E): T1 sequence (Q8K424 1-791) with W521Y, F522S, H523E, L557M, A560T, Q580E
Method: as §1, §2

## C=C(C)[C@]12C[C@@H](C)[C@@]34O[C@](Cc5ccccc5)(O[C@@H]1[C@@H]3C=C(COC(=O)Cc1ccc(O)c(OC)c1)C[C@]1(O)C(=O)C(C)=C[C@@H]41)O2 [RTx, resiniferatoxin]
WT mouse TRPV3; RTx 100 nM after short stimulation with 2-APB (3 mM)
  channel activation by RTx after 2-APB pre-stimulation: did not activate
WT mouse TRPV3; RTx 100 nM with heating
  channel activation by RTx together with heating: did not elicit any response
Mouse TRPV3-6M; RTx 100 nM after short stimulation with saturating 2-APB (3 mM)
  channel activation by RTx after 2-APB pre-stimulation: robust activation
Mouse TRPV3-6M; RTx 100 nM with short heating pulse, temperatures slightly above room temperature
  channel activation by RTx together with heating: prominent activation
Mouse TRPV3-6M
  channel activation (current response): insensitive

## NCCOB(c1ccccc1)c1ccccc1 [2-APB, 2-aminoethoxydiphenyl borate]
WT mouse TRPV3; 2-APB 3 mM, room temperature
  channel activation (current response): robust responses
WT mouse TRPV3; -60 mV
  s (slope) of Hill fit, 2-APB concentration-response: 2.63
WT mouse TRPV3; -60 mV, room temperature, Hill fit, read-out: apparent affinity (EC50) for activation by 2-APB
  EC50: 464 ± 12 µM
Mouse TRPV3-6M
  channel activation (current response): robust responses
